Assay [1] deals with T1, helicase domain of the Pol θ protein (Homo sapiens, UniProt O75417).
T1 construct: The helicase domain of the Pol θ protein was purified from insect protein expression system; made in house; host or cells: insect protein expression system
As to the kind of experiment: Biochemical Activity Assay (ADP Glo Assay) of Pol θ inhibitor, ATPase activity.

The nature of another assay: cells. The settings on record: Homo sapiens, DLD-1, 240 h.
The mark [2] stands for this setting: ADP-Glo assay, ATPase activity of Pol θ helicase domain, ssDNA substrate, read-out: Biochemical assay IC50.
[3] abbreviates: read-out: Cell viability assay IC50 (nM), CTG assay, CellTiter Glo, read on Day 10, cell line not given.
Setting [4] is: read-out: Cell viability assay IC50 (nM).

Read-outs that look alike come from different tables or passages of the source.

T1 sequence (O75417 102-554 limits assumed): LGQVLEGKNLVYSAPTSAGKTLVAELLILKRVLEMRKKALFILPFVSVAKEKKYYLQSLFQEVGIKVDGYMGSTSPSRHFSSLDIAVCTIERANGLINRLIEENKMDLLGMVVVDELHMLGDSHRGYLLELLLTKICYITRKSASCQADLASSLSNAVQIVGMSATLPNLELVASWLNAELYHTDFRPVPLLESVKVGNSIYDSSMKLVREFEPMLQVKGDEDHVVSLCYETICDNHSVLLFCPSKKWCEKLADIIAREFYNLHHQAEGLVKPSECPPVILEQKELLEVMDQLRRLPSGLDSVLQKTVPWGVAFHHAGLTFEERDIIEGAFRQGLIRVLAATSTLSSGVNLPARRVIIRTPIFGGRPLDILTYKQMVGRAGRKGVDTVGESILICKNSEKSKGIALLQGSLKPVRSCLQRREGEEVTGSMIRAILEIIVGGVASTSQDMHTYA

On to `COc1cnc(Cl)cc1-c1cc(C)ncc1C(=O)Nc1nc2ccc(-c3c(C)nnn3C)nc2s1` [Example 147, 2'-chloro-N-(5-(1,4-dimethyl-1H-1,2,3-triazol-5-yl)thiazolo[5,4-b]pyridin-2-yl)-5'-methoxy-6-methyl-[4,4'-bipyridine]-3-carboxamide], for which the 50% inhibitory concentration (IC50) was determined as 17.6 nM in assay [1] (setting [2]) and 82.5 nM in “cells” (setting [3]).
Turning to `COc1cnc(Cl)cc1-c1cc(C)ncc1C(=O)Nc1nc2ccc(-c3c(C)cnn3C)cc2s1` [Example 148], the half-maximal inhibitory concentration (IC50) in assay [1] (setting [2]) is 4.93 nM; in “cells” (setting [3]), 4.13 nM.
With `[2H]C([2H])([2H])n1ncc(C)c1-c1cc2sc(NC(=O)c3cnc(C)cc3-c3cc(Cl)ncc3OC)nc2cn1` [Example 149], the half-maximal inhibitory concentration (IC50) is 2.29 nM in assay [1] (setting [2]) and 3.54 nM in the assay “cells” (setting [3]).
In the same order, the values of `COc1cnc(Cl)cc1-c1cc(C)ncc1C(=O)Nc1nc2cnc(-c3c(C)nn(C)c3C#N)cc2s1` [Example 150] are 5.58 nM and 21.5 nM.
Consider `COc1cnc(Cl)cc1-c1cc(C)ncc1C(=O)Nc1nc2ccc(-c3c(C)cnn3C)c(F)c2s1` [Example 151], for which the values for the IC50 (in assay [1] (setting [2]); in the assay “cells” (setting [3])) were 8.57 nM and 3.98 nM, respectively.
In the same order, the values of `COc1cnc(Cl)cc1-c1cc(C)ncc1C(=O)Nc1nc2cnc(-c3c(C)nn(C)c3C(N)=O)cc2s1` [Example 152] are 3.02 nM and 17.2 nM.
In the case of `COc1cc(P(C)(C)=O)ccc1-c1cc(C)ncc1C(=O)Nc1nc2cnc(-c3c(C)cnn3C)cc2s1` [Example 153], the IC50 in assay [1] (setting [2]) is 24.4 nM; in the assay “cells” (setting [3]), 545 nM.
On to `COc1cnc(Cl)cc1-c1cc(C)ncc1C(=O)Nc1nc2cnc(-c3c(F)cnn3C)cc2s1` [Example 154], for which the figures for the IC50 (in assay [1] (setting [2]); in “cells” (setting [3])) were 2.36 nM and 17.8 nM, respectively.
Regarding `[2H]C([2H])([2H])Oc1cnc(Cl)cc1-c1cc(C)ncc1C(=O)Nc1nc2cnc(-c3c(C)cnn3C)cc2s1` [Example 156], the half-maximal inhibitory concentration (IC50) is 2.75 nM in assay [1] (setting [2]) and 5.62 nM in “cells” (setting [3]).
On the same counts, the results for `COc1cnc(Cl)cc1-c1cc(C)ncc1C(=O)Nc1nc2cnc(-c3c(C)cnn3C)nc2s1` [Example 157] are 5.08 nM and 32.9 nM.
In the same order, the values of `COc1cnc(Cl)cc1-c1cc(C)ncc1C(=O)Nc1nc2cnc(-c3c(C)nn4ccccc34)cc2s1` [Example 158] are 6.31 nM and 4.64 nM.
As for `COc1cnc(Cl)cc1-c1cc(C)ncc1C(=O)Nc1nc2nnc(-c3c(C)cnn3C)cc2s1` [Example 159], the IC50 in assay [1] (setting [2]) was 2.75 nM; in the assay “cells” (setting [3]), 1170 nM.
In the case of `COc1cnc(Cl)cc1-c1cc(C)ncc1C(=O)Nc1nc2ncc(-c3c(C)cnn3C)nc2s1` [Example 160], the 50% inhibitory concentration (IC50) in assay [1] (setting [2]) came to 5.75 nM; in “cells” (setting [3]), 82.5 nM.
Consider `COc1cnc(Cl)cc1-c1cc(C)ncc1C(=O)Nc1nc2cnc(-c3[nH]ncc3C)cc2s1` [Example 161], for which the figures for the IC50 (in assay [1] (setting [2]); in the assay “cells” (setting [3])) were 3.41 nM and 121 nM, respectively.
On to `COC(=O)c1cc(-c2c(C)cnn2C)cc2sc(NC(=O)c3cnc(C)cc3-c3cc(Cl)ncc3OC)nc12` [Example 162], for which the IC50 was 63.1 nM in assay [1] (setting [2]) and 233 nM in “cells” (setting [3]).
Regarding `COc1cnc(Cl)cc1-c1cc(C)ncc1C(=O)Nc1nc2cnc(-c3c(C)nn(C)c3C)cc2s1` [Example 163], the IC50 is 2.51 nM in assay [1] (setting [2]) and 3.41 nM in “cells” (setting [3]).
Consider `COc1cnc(Cl)cc1-c1cc(C)ncc1C(=O)Nc1nc2c(C(N)=O)cc(-c3c(C)cnn3C)cc2s1` [Example 165], for which the half-inhibitory concentration (IC50) in assay [1] (setting [2]) stood at 16.9 nM; in the assay “cells” (setting [3]) it was 446 nM.
For the molecule `COc1cnc(Cl)cc1-c1cc(C)ncc1C(=O)Nc1nc2c(C#N)cc(-c3c(C)cnn3C)cc2s1` [Example 166], the figures for the IC50 (in assay [1] (setting [2]); in “cells” (setting [3])) were 25.1 nM and 68.1 nM, respectively.
In the case of `COc1cnc(Cl)cc1-c1cc(C)ncc1C(=O)Nc1nc2cnc(-c3c(Cl)cnn3C)cc2s1` [Example 167], the IC50 was found to be 3.74 nM in assay [1] (setting [2]) and 5.41 nM in the assay “cells” (setting [3]).
For the molecule `COc1cnc(Cl)cc1-c1cc(C)ncc1C(=O)Nc1nc2cnc(-c3c(C#N)cnn3C)cc2s1` [Example 169], the figures for the IC50 (in assay [1] (setting [2]); in the assay “cells” (setting [3])) were 8.84 nM and 89.1 nM, respectively.
Regarding `COc1cnc(Cl)cc1-c1cc(C)ncc1C(=O)Nc1nc2c(CO)cc(-c3c(C)cnn3C)cc2s1` [Example 170], the half-maximal inhibitory concentration (IC50) was 7.13 nM in assay [1] (setting [2]) and 825 nM in the assay “cells” (setting [3]).
As for `COc1cnc(Cl)cc1-c1cc(C)ncc1C(=O)Nc1nc2cnc(-c3cncn3C)cc2s1` [Example 171], the IC50 in assay [1] (setting [2]) was found to be 4.93 nM; in the assay “cells” (setting [3]), 13.1 nM.
For `[2H]C([2H])([2H])c1cnn(C)c1-c1cc2sc(NC(=O)c3cnc(C)cc3-c3cc(Cl)ncc3OC)nc2cn1` [Example 176, 2'-chloro-5'-methoxy-6-methyl-N-(6-(1-methyl-4-(methyl-d3)-1H-pyrazol-5-yl)thiazolo [4,5-c]pyridin-2-yl)-[4,4'-bipyridine]-3-carboxamide], the figures for the half-inhibitory concentration (IC50) (in assay [1] (setting [2]); in the assay “cells” (setting [3])) were 4.64 nM and 4.29 nM, respectively.
As for `COc1cnc(Cl)cc1-c1cc(C)ncc1C(=O)Nc1nc2nc(OC)c(-c3c(C)cnn3C)cc2s1` [Example 177, 2'-chloro-N-(6-(1,4-dimethyl-1H-parazol-5-yl)-5-methoxythiazolo[4,5-b]pyridin-2-yl)-5' -methoxy-6-methyl-[4,4'-bipyridine]-3-carboxamide], the IC50 in assay [1] (Biochemical assay IC50 (nM)) was determined as 13.6 nM; in “cells” (setting [4]) it was 121 nM.
On the same counts, the results for `COc1cnc(Cl)cc1-c1cc(C)ncc1C(=O)Nc1nc2[nH]c(=O)c(-c3c(C)cnn3C)cc2s1` [Example 178, 2'-chloro-N-(6-(1,4-dimethyl-1H-parazol-5-yl)-5-oxo-4,5-dihydrothiazolo[4,5-b]pyridin-2-yl)-5'-methoxvy-6-methyl-[4,4'-bipyridine]-3-carboxamide] are 1.63 nM and 35.5 nM.
As to `COc1cnc(Cl)cc1-c1cc(C)ncc1C(=O)Nc1nc2c(=O)[nH]c(-c3c(C)cnn3C)cc2s1` [Example 179, 2'-chloro-N-(6-(1,4-dimethyl-1H-parazol-5-yl)-4-oxo-4,5-dihydrothiazolo[4,5-c]pyridin-2-yl)-5'-methoxy-6-methyl-[4,4'-bipyridine]-3-carboxamide], the values for the 50% inhibitory concentration (IC50) (in assay [1] (Biochemical assay IC50 (nM)); in the assay “cells” (setting [4])) were 2.43 nM and 562 nM, respectively.
With `COc1cnc(Cl)cc1-c1cc(C)ncc1C(=O)Nc1nc2ncc(C3COCCO3)cc2s1` (stereo not drawn) [Example 182, N-(6-(1,4-dioxan-2-yl)thiazolo[4,5-b]pyridin-2-yl)-2'-chloro-5'-methoxy-6-methyl-[4,4'-bipyridine]-3-carboxamide], the 50% inhibitory concentration (IC50) in assay [1] (setting [2]) worked out at 2.08 nM; in the assay “cells” (setting [3]) it was 39.8 nM.
As for `COc1cnc(Cl)cc1-c1cc(C)ncc1C(=O)Nc1nc2nnc(C3=CCC(O)CC3)cc2s1` (stereo not drawn) [Example 183, 2'-chloro-N-(3-(4-hydroxycyclohexyl-1-en-1-yl)thiazolo[4,5-c]pyridazin-6-yl)-5'-methox y-6-methyl-[4,4'-bipyridine]-3-carboxamide], the figures for the IC50 (in assay [1] (Biochemical assay IC50 (nM)); in the assay “cells” (setting [4])) were 3.41 nM and 1260 nM, respectively.
For the molecule `COc1cnc(Cl)cc1-c1cc(C)ncc1C(=O)Nc1nc2ncc(C3=CCC4(CC3)CN(C(C)=O)C4)cc2s1` [Example 184], the half-maximal inhibitory concentration (IC50) in assay [1] (setting [2]) was found to be 15.2 nM; in “cells” (setting [3]), 482 nM.
For the molecule `COc1cnc(Cl)cc1-c1cc(C)ncc1C(=O)Nc1nc2cnc(C3=CCC4(CC3)CN(C(C)=O)C4)cc2s1` [Example 185], the IC50 in assay [1] (setting [2]) worked out at 8.94 nM; in the assay “cells” (setting [3]), 35.9 nM.
On to `CCP(=O)(CC)c1ccc(-c2cnc3nc(NC(=O)c4cnc(C)cc4-c4cc(Cl)ncc4OC)sc3c2)cc1` [Example 186], for which the IC50 in assay [1] (Biochemical assay IC50 (nM)) was determined as 5.58 nM; in the assay “cells” (setting [4]), 1520 nM.
Take `CCP(=O)(CC)c1ccc(-c2ccc3nc(NC(=O)c4cnc(C)cc4-c4cc(Cl)ncc4OC)sc3c2)cc1` [Example 187]: the values for the IC50 (in assay [1] (Biochemical assay IC50 (nM)); in the assay “cells” (setting [4])) were 8.75 nM and 271 nM, respectively.
For the molecule `COc1cnc(Cl)cc1-c1cc(C)ncc1C(=O)Nc1nc2cnc(-c3ccc(S(F)(F)(F)(F)F)cc3)cc2s1` [Example 188], the results for the 50% inhibitory concentration (IC50) (in assay [1] (setting [2]); in the assay “cells” (setting [3])) were 36.7 nM and less than 1.52 nM, respectively.
On the same counts, the results for `CCP(=O)(CC)c1ccc(-c2cc3sc(NC(=O)c4cnc(C)cc4-c4cc(Cl)ncc4OC)nc3cc2F)cc1` [Example 189] are 8.06 nM and 12.9 nM.
In the case of `COc1cnc(Cl)cc1-c1cc(C)ncc1C(=O)Nc1nc2cc(F)c(-c3ccc(P4(=O)CCCC4)cc3)cc2s1` [Example 190], the IC50 is 5.08 nM in assay [1] (setting [2]) and 3.28 nM in the assay “cells” (setting [3]).
As for `COc1cnc(Cl)cc1-c1cc(C)ncc1C(=O)Nc1nc2c(s1)CN(C(=O)c1ccccc1)CC2` [Example 191, N-(5-benzoyl-4.5.6,7-tetrahydrothiazolo[5.4]pyridin-2-yl)-2'-chloro-5'-methoxy-6-methyl-[4,4'-bipyridine]-3-carboxamide], the concentration for half-maximal inhibition (IC50) came out at 29.3 nM in assay [1] (Biochemical assay IC50 (nM), ADP-Glo assay, ATPase activity of Pol θ helicase domain, ssDNA substrate) and 521 nM in the assay “cells” (setting [4]).
Consider `COc1cnc(Cl)cc1-c1cc(C)ncc1C(=O)Nc1nc2c(s1)CN(Cc1ccncc1)CC2` [Example 192, 2'-chloro-5'-methoxy-6-methyl-N-(5-(pyridin-4-ylmethyl)-4,5,6,7-tetrahydrothiazolo[5,4-c]pyridin-2-yl)-[4,4'-bipyridine]-3-carboxamide], for which the IC50 in assay [1] (setting [2]) came out at 103 nM; in “cells” (setting [3]), 4820 nM.
On to `COc1cnc(Cl)cc1-c1cc(C)ncc1C(=O)Nc1nc2cc3c(cc2s1)N(c1ccnn1C)CCO3` [Example 194, 2'-chloro-5'-methoxy-6-methyl-N-(8-(1-methyl-1H-parazol-5-yl)-7,8-dihydro-6H-thiazolo[5',4':4,5]benzo[1,2-b][1,4]oxazin-2-yl)-[4,4'-bipyridine]-3-carboxamide], for which the IC50 in assay [1] (Biochemical assay IC50 (nM)) came to 22.9 nM; in the assay “cells” (setting [4]), 65.6 nM.
As to `COc1cnc(Cl)cc1-c1cc(C)ncc1C(=O)Nc1nc2cnc(N3CCC(NS(C)(=O)=O)CC3)cc2s1` [Example 195], the results for the half-maximal inhibitory concentration (IC50) (in assay [1] (Biochemical assay IC50 (nM)); in the assay “cells” (setting [4])) were 6.18 nM and 34.2 nM, respectively.

(Values after patent publication EP4585599A1, “NITROGEN-CONTAINING FUSED RING COMPOUND, INTERMEDIATE THEREOF, PREPARATION METHOD THEREFOR AND USE THEREOF” (Hangzhou Synrx Therapeutics Biomedical Technology Co., Ltd., priority 2022, dated 2024).)
